Reference: patent US5597848A, “Benzenesulfonamide derivatives and use thereof” (Hokuriku Seiyaku Co., Ltd., priority 1992, dated 1997)

Key:
[1] = target: T1, thromboxane A2 synthetase (Homo sapiens, UniProt P24557); assay: Inhibitory effect on thromboxane A2 synthetase (human platelet membrane fraction, thromboxane B2 RIA); assay type: biochemical; conditions: 3 min at 25° C., read-out: IC50 (50% inhibition of the enzyme activity)
T1 construct: human platelet membrane fraction (RAN) as a source of thromboxane A2 synthetase; purchased RAN; host or cells: human platelet membrane fraction
T1 sequence (P24557 1-533): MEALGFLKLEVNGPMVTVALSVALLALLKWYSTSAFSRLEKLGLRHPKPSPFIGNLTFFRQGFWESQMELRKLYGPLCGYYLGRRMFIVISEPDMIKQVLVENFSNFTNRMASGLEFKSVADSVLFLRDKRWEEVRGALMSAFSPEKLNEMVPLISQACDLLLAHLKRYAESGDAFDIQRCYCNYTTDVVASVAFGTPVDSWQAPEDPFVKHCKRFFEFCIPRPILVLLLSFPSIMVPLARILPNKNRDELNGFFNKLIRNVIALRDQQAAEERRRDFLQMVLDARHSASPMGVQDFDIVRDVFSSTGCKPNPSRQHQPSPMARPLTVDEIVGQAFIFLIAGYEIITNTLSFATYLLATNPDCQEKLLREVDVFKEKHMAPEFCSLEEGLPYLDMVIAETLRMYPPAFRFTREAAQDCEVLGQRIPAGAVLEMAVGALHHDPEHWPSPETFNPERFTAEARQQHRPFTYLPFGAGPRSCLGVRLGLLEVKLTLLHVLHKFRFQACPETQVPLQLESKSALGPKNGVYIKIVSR
Protocol: 100 μg/ml (285 μl) of the commercially available human platelet membrane fraction (RAN) as a source of thromboxane A2 synthetase, dimethyl sulfoxide solution of test compounds (10 μl) and 100 μg/ml (5 μl) of prostaglandin H2 (Cayman) were mixed and reaction was carried out for 3 min at 25° C. Amount of thromboxane B2, a stable metabolite derived from thromboxane A2 produced, was measured by RIA method (TXB2 quantification kit; NEN).

leukotriene D4 = target: T2, leukotriene D4 (Cavia porcellus, UniProt Q2NNR5); assay: Leukotriene D4 antagonistic effect in isolated trachea (Schild method); set-up: species or system male Hartley guinea-pigs; conditions: for Kb: isolated trachea, 30 min treatment, indomethacin 3×10^-6 M, Krebs 37° C.
T2 construct: tracheas were isolated from male Hartley guinea-pigs; from tissue; host or cells: isolated trachea of male Hartley guinea-pigs
T2 sequence (Q2NNR5 1-340): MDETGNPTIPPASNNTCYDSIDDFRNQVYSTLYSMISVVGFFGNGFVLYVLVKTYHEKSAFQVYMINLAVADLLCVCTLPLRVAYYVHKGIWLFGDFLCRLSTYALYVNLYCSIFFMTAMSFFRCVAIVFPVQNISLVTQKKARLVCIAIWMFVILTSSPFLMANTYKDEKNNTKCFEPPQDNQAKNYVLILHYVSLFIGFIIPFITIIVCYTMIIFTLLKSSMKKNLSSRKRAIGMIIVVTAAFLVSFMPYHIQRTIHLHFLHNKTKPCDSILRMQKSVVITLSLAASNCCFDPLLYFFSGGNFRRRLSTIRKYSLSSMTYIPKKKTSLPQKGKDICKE
Protocol: According to an ordinary method, tracheas were isolated from male Hartley guinea-pigs, and ring specimens of approximately […] length were prepared. These specimens were suspended isotonically in organ baths that contained Krebs solution at 37° C. under a resting tension of 0.5 g. After repeated contractions with acetylcholine (1×10^-6 M; Ovisot for injection, Daiichi Seiyaku), and the first concentration-response curves was obtained by cummulative applications of leukotriene D4 (ULTRA FINE) into the organ baths. After treatments with test compounds at adequate concentrations for 30 min, the second concentration-response curves were obtained in the same manner as first applications. pKB values were calculated using these two concentration-response curves according to the method of Schild [Pharmacological Review, Vol. 9, 242 (1957)]. Indomethacin (3×10^-6 M; Sigma) was added beforehand to the organ bath to eliminate possible affections by thromboxane A2 and prostaglandin produced by stimulus of leukotriene D4 [Japan J. Pharmacol., Vol. 60, 227 (1992)].

[2] = system: broncho-constriction induced by U-46619; assay: Inhibitory effect on broncho-constriction induced by U-46619 (Konzett-Roessler method, oral); assay type: in vivo, Male hartley guinea-pigs; conditions: 0.3 mg/kg orally, 2 hrs before U-46619 4 μg/kg
Protocol: Airway resistance was evaluated according to the method of Konzett-Roessler[Naunyn-Schmiedberg's Arch. Exp. Path. Pharmak., Vol. 195, 71 (1940)]. Male hartley guinea-pigs (about 400 g wt.) were anesthetized with urethane (1.5 g/kg, i.p.) and ventilated by an artificial respirator (Model 683; Harvard). At that time, overflowed air volume above the pressure of about 12 cm H2 O was measured by using a sensor (Model 7020; Ugo basile) and the value was used as an index of broncho-constriction. 0.3 mg/kg (5 ml/kg) of test compounds suspended in 5% gum Arabic was administered orally to Guinea-pigs fasted beforehand for 24 hr. After 2 hrs, U-46619 (4 μg/kg; Cayman) was administered through the cervical vein, and then maximal response was measured. Inhibitory rates compared to the reference group were calculated based on the response rate normalized by the complete closure as 100%.

[3] = system: broncho-constriction induced by leukotriene D4; assay: Inhibitory effect on broncho-constriction induced by leukotriene D4 (Konzett-Roessler method, oral); assay type: in vivo, male Hartley guinea-pig
Protocol: Airway resistance was evaluated according to the method of Konzett-Roessler[Naunyn-Schmiedberg's Arch. Exp. Path. Pharmak., Vol. 195, 71 (1940)]. After male Hartley guinea-pig fasted beforehand for 24 hr were anesthetized with urethane, overflowed air volume was measured under artificial ventilation as an index of broncho-constriction. 30 mg/kg (5 ml/kg) of test compounds suspended in 5% gum Arabic were administered orally to […]. Leukotriene D4 (1 μg/kg; ULTRA FINE) was administered through the cervical vein after 2 hr, and then values were measured at 2 min after the time when responses became maximum. Inhibitory rates compared to the control group were calculated based on the response rate normalized by the overflowed volume at complete closure as 100% broncho-constriction state. Indomethacin (2 mg/kg, i.v.) and propranolol (1 mg/kg, i.v.) were administered at 10 min and 5 min before the administration of leukotriene D4, respectively.

thromboxane A2 receptor = target: T3, thromboxane A2 receptor (Cavia porcellus, UniProt A0A286Y4I8); assay: Thromboxane A2 antagonistic effect: inhibition of U-46619-induced platelet aggregation in guinea-pig platelet-rich plasma; assay type: cell-based, guinea-pigs; conditions: guinea-pig PRP, U-46619 2 μg/ml, 2 min at 37° C.; read-out: IC50 (50% inhibition against platelet aggregation)
T3 construct: platelet-rich plasma; endogenous in cells; host or cells: guinea-pig platelets in platelet-rich plasma
T3 sequence (A0A286Y4I8 1-347): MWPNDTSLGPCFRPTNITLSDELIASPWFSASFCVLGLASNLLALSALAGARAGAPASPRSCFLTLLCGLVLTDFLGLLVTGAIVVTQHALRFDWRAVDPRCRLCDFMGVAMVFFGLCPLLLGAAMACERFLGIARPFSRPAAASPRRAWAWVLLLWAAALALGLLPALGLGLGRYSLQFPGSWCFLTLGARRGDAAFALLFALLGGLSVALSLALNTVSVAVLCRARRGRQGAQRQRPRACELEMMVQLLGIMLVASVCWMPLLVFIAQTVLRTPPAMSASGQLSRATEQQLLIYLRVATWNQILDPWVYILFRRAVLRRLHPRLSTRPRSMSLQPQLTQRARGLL
Protocol: Blood was collected from the abdominal aorta of guinea-pigs (about 400 g wt.) into 1/10 volume of 3.8% sodium citrate, and then platelet-rich plasma (PRP: 6×10^5 cells/μl) was obtained by centrifugation. A cuvette was filled with PRP 190 μl and set in an aggregometer (Hema Tracer I; Niko Bioscience). Incubation was carried out for 2 min. at 37° C. after the addition of 1 μl of dimethyl sulfoxide solution of test compounds. To the PRP, 10 μl of U-46619 (Cayman), a thromboxane A2 /prostaglandin H2 receptor agonist and potent platelet aggregation inducer, was added at the final concentration of 2 μg/ml, and platelet aggregation was measured by an aggregometer.

IC50 [1]	leukotriene D4 antagonistic effect (in words) (leukotriene D4)	Kb (leukotriene D4)	IC50 (thromboxane A2 receptor)	Compound	Inhibition rate [2]	inhibition in vivo at 30 mg/kg ([3]; Cavia porcellus, po, 30 mg/kg orally, leukotriene D4 1 μg/kg after 2 hr, indomethacin and propranolol pretreatment, read-out: Inhibition rate)	inhibitory effect on broncho-constriction induced by leukotriene D4 (in words) ([3]; guinea pig, in vivo)
40000 nM	inactive	> 100000 nM	–	O=C(O)Cc1ccc(CCNS(=O)(=O)c2ccc(Cl)cc2)cc1 [Reference compound, reference compound]	18%	≤ 0%	no inhibitory effect
3200 nM	–	501 nM	320 nM	O=C(O)CCCc1ccc(C(NS(=O)(=O)c2ccc(Cl)cc2)C2CCCCC2)cc1 (stereo not shown) [Example 74, 4-[4-[(4-Chlorophenylsulfonylamino)cyclohexylmethyl]phenyl]butyric Acid]	–	–	–
4000 nM	–	–	50 nM	O=C(O)CCCc1ccc(C(Cc2ccccc2)NS(=O)(=O)c2ccc(Cl)cc2)cc1 (stereo not shown) [Example 62, 4-[4-[1-(4-Chlorophenylsulfonylamino)-2-phenylethyl]phenyl]butyric Acid]	–	–	–
1600 nM	–	–	250 nM	O=C(O)CCCc1ccc(C(NS(=O)(=O)c2ccc(Cl)cc2)C2CCCC2)cc1 (stereo not shown) [Example 73, 4-[4-[(4-Chlorophenylsulfonylamino)cyclopentylmethyl]phenyl]butyric Acid]	–	–	–
